# Measured values published in ChEMBL document CHEMBL4038351, “Structure-Guided Development of Covalent and Mutant-Selective Pyrazolopyrimidines to Target T790M Drug Resistance in Epidermal Growth Factor Receptor” (J Med Chem, 2017).
# The source made the active and inactive calls. The rule behind the calls is not given here.
# Legend:
# A-431 = assay: cells; assay type: ADME, cell-based; settings: Homo sapiens;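 also: antiproliferative effect on cells bearing wild-type EGFR, 96 h exposure, viability read by CellTiter-Glo luminescence on day 5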
# Description: Antiproliferative activity against human A431 cells expressing wild type EGFR incubated for 96 hrs measured on day 5 by CellTiterGlo assay
# HCC827 = assay: cells; assay type: functional, cell-based; settings: Homo sapiens;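 also: antiproliferative effect on HCC827 cells carrying EGFR delE746_A750 mutation, 96 h exposure, viability read by CellTiter-Glo luminescence on day 5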
# Description: Antiproliferative activity against human HCC827 cells harboring EGFR-delE746_A750 mutant incubated for 96 hrs measured on day 5 by CellTiterGlo assay
# NCI-H1975 = assay: cells; assay type: functional, cell-based; settings: Homo sapiens
# A549 = assay: cells; assay type: ADME, cell-based; settings: Homo sapiens;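 also: antiproliferative effect in KRAS G12S mutant A549 cells after 96 h exposure, viability read by CellTiter-Glo luminescence on day 5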
# Description: Antiproliferative activity against human A549 cells harboring KRAS-G12S mutant incubated for 96 hrs measured on day 5 by CellTiterGlo assay
# [1] = Permeability of the compound at 500 uM incubated for 20 hrs by PAMPA; assay type: physicochemical
# [2] = Apparent permeability across apical to basolateral side in human Caco2 cells at 5 uM incubated for 2 hrs; assay type: ADME, cell-based, Caco-2; settings: Caco-2
# [3] = Apparent permeability across basolateral to apical side in human Caco2 cells at 5 uM incubated for 2 hrs; assay type: ADME, cell-based, Caco-2; settings: Caco-2
# [4] = Metabolic stability in human plasma at 5 uM incubated for 1 hr by LC-MS method; assay type: ADME, cell-free; settings: read-out: Stability
# [5] = Metabolic stability in mouse plasma at 5 uM incubated for 1 hr by LC-MS method; assay type: ADME, cell-free; settings: read-out: Stability
# [6] = Fraction unbound in mouse 100% plasma at 5 uM incubated for 6 hrs by LC-MS method; assay type: ADME, cell-free
# [7] = Volume of distribution at steady state in RjOrl:SWISS (CD1) mouse plasma at 2 mg/kg, iv; assay type: ADME, organism-based; settings: read-out: Vdss
# [8] = Clearance in RjOrl:SWISS (CD1) mouse plasma at 2 mg/kg, iv; assay type: ADME, organism-based
# [9] = AUC in RjOrl:SWISS (CD1) mouse plasma at 2 mg/kg, iv; assay type: ADME, organism-based
# [10] = Initial concentration in RjOrl:SWISS (CD1) mouse plasma at 2 mg/kg, iv; assay type: ADME, organism-based
# [11] = Half life in RjOrl:SWISS (CD1) mouse plasma at 2 mg/kg, iv; assay type: ADME, organism-based
# [12] = Half life in RjOrl:SWISS (CD1) mouse plasma at 20 mg/kg, ip; assay type: ADME, organism-based
# [13] = Total Cmax in RjOrl:SWISS (CD1) mouse plasma at 20 mg/kg, ip; assay type: ADME, organism-based; parameters: dose 20 mg/kg, route intraperitoneal
# [14] = AUC in RjOrl:SWISS (CD1) mouse plasma at 20 mg/kg, ip; assay type: ADME, organism-based
# Mus musculus [15] = assay: Bioavailability in RjOrl:SWISS (CD1) mouse plasma at 20 mg/kg, ip; assay type: ADME, organism-based; settings: in vivo
# [16] = Half life in RjOrl:SWISS (CD1) mouse plasma at 20 mg/kg, po administered via gavage; assay type: ADME, organism-based
# [17] = Cmax in RjOrl:SWISS (CD1) mouse plasma at 20 mg/kg, po administered via gavage; assay type: ADME, organism-based; parameters: dose 20 mg/kg, route oral
# [18] = AUC in RjOrl:SWISS (CD1) mouse plasma at 20 mg/kg, po administered via gavage; assay type: ADME, organism-based
# [19] = Oral bioavailability in RjOrl:SWISS (CD1) mouse plasma at 20 mg/kg administered via gavage; assay type: ADME, organism-based
# [20] = Kinetic solubility in Hepes buffer at 500 uM at pH 7.4 after 90 mins; assay type: physicochemical; settings: read-out: Kinetic_solubility
# Mus musculus [21] = assay: Toxicity in RjOrl:SWISS (CD1) mouse at 2 mg/kg, iv; assay type: organism-based; settings: in vivo
# Mus musculus [22] = assay: Toxicity in RjOrl:SWISS (CD1) mouse at 20 mg/kg, ip; assay type: organism-based; settings: in vivo
# Mus musculus [23] = assay: Toxicity in RjOrl:SWISS (CD1) mouse at 20 mg/kg, po administered via gavage; assay type: organism-based; settings: in vivo
# [24] = Ratio of total Cmax in RjOrl:SWISS (CD1) mouse plasma at 20 mg/kg, ip to EC50 for antiproliferative activity against human NCI-H1975 cells harboring EGFR-L858R/T790M double mutant
# Mus musculus [25] = assay: Free Cmax in RjOrl:SWISS (CD1) mouse plasma at 20 mg/kg, ip; assay type: ADME, organism-based; settings: in vivo
# [26] = Ratio of free Cmax in RjOrl:SWISS (CD1) mouse plasma at 20 mg/kg, ip to EC50 for antiproliferative activity against human NCI-H1975 cells harboring EGFR-L858R/T790M double mutant
# Mus musculus [27] = assay: Time duration during which total plasma concentration stays above in vitro EC50 for human NCI-H1975 cells harboring EGFR-L858R/T790M double mutant in RjOrl:SWISS (CD1) mouse at 20 mg/kg, ip
# Mus musculus [28] = assay: Time duration during which free plasma concentration stays above in vitro EC50 for human NCI-H1975 cells harboring EGFR-L858R/T790M double mutant in RjOrl:SWISS (CD1) mouse at 20 mg/kg, ip
# [29] = tested on: Epidermal growth factor receptor (Homo sapiens), P00533 [L858R,T790M]; assay: Covalent binding affinity to human recombinant GST-tagged EGFR L858R/T790M double mutant expressed in baculovirus expression system by mass spectrometry
# [30] = biological target: Epidermal growth factor receptor (Homo sapiens, UniProt P00533)
# [31] = biological target: Epidermal growth factor receptor (Homo sapiens, UniProt P00533, L858R)
# [32] = biological target: Epidermal growth factor receptor (Homo sapiens, UniProt P00533, L858R/T790M)
# in vitro [33] = settings: human, Caco-2
# Description: Efflux ratio of apparent permeability from basolateral side to apical side over apical side to basolateral side over in human Caco2 cells at 5 uM incubated for 2 hrs
# in vitro [34] = settings: mouse, liver microsomes
# in vitro [35] = settings: human, liver microsomes
smiles,measurement,setting,value
C=CC(=O)N1CCC[C@@H](n2nc(-c3cn(C)c4ccccc34)c3c(N)ncnc32)C1,EC50,A-431,6780 nM
same,EC50,HCC827,90 nM
same,EC50,NCI-H1975,230 nM
same,EC50,A549,23300 nM
same,permeability,[1],66%
same,"Papp A→B at 2 h, 5 µM",[2],0.3 ×10⁻⁶ cm/s
same,"Papp B→A at 2 h, 5 µM",[3],0.29 ×10⁻⁶ cm/s
same,"remaining at 1 h, 5 µM",[4],95%
same,"remaining at 1 h, 5 µM",[5],100%
same,"fraction unbound at 6 h, 5 µM",[6],0.12
same,Vd,[7],12.4 L/kg
same,clearance,[8],277 mL/min/kg
same,AUC,[9],121 ng·h/mL
same,C0,[10],138 ng/mL
same,half-life,[11],36 min
same,half-life,[12],14.4 min
same,Cmax,[13],4540 ng/mL
same,AUC,[14],1890 ng·h/mL
same,F,Mus musculus [15],156%
same,half-life,[16],35.4 min
same,Cmax,[17],38 ng/mL
same,AUC,[18],29 ng·h/mL
same,bioavailability,[19],2.4%
same,"solubility kinetic at 1.5 h, 500 µM",[20],364 µM
same,Activity,Mus musculus [21],Non-Toxic
same,Activity,Mus musculus [22],Non-Toxic
same,Activity,Mus musculus [23],Non-Toxic
same,Ratio,[24],50
same,fCmax,Mus musculus [25],1.36 µM
same,Ratio,[26],6
same,Time,Mus musculus [27],75 min
same,Time,Mus musculus [28],30 min
same,Activity,[29],Active
same,IC50,[30],40 nM
same,IC50,[31],2 nM
same,IC50,[32],3 nM
same,"efflux ratio at 2 h, 5 µM",in vitro [33],1
same,"microsomal CLint at 50 min, 3 µM",in vitro [34],1980 µL/min/mg
same,"microsomal CLint at 50 min, 3 µM",in vitro [35],462 µL/min/mg
C=CC(=O)N1CCC[C@@H](n2nc(-c3ccc4ccccc4c3)c3c(N)ncnc32)C1,EC50,A-431,3600 nM
same,EC50,HCC827,< 14 nM
same,EC50,NCI-H1975,140 nM
same,EC50,A549,11600 nM
same,permeability,[1],73%
same,"Papp A→B at 2 h, 5 µM",[2],0.51 ×10⁻⁶ cm/s
same,"Papp B→A at 2 h, 5 µM",[3],0.13 ×10⁻⁶ cm/s
same,"remaining at 1 h, 5 µM",[4],94%
same,"remaining at 1 h, 5 µM",[5],86%
same,"fraction unbound at 6 h, 5 µM",[6],0.02
same,"solubility kinetic at 1.5 h, 500 µM",[20],248 µM
same,Activity,[29],Active
same,IC50,[30],20 nM
same,IC50,[31],1 nM
same,IC50,[32],< 1 nM
same,"efflux ratio at 2 h, 5 µM",in vitro [33],0.3
same,"microsomal CLint at 50 min, 3 µM",in vitro [34],2310 µL/min/mg
same,"microsomal CLint at 50 min, 3 µM",in vitro [35],770 µL/min/mg
